Data reported in paper PMC6271935, “Synthesis and Broad-Spectrum Antiviral Activity of Some Novel Benzo-Heterocyclic Amine Compounds” (Molecules, 2014).
pIC50: −log10 of the molar value. Values joined by “and” are separate entries in the source; they are usually repeats but may differ in a detail not shown here. Equal entries are not always repeated.

Tests used:
[1] = system: Influenza A/hanfang/359/95; test: microbe, parasite or virus in culture; format: cell-based; details: Influenza A virus, MDCK
MDCK cells = test: Cytotoxicity in MDCK cells (CPE); format: cell-based, Canine; details: 48 h, Reed & Muench
Procedure: (§1) The cytotoxicity of the compounds in MDCK, Vero and HepG2.2.15 cells was monitored via cytopathic effect (CPE) assays. The MDCK and Vero cells (2.5 × 10^4 /well) were plated in a 96-well plate. Following a 24 h hold period, the monolayer of cells was incubated in the presence of various concentrations of the test compounds. […] The TC50 value was calculated using Reed & Muench analysis.

Cox B3 = test: organism not typed; format: cell-based, Coxsackie viruses (Cox B3 Nancy strain); details: Vero
HCV = test: Anti-HCV assay in Huh7.5 cells, intracellular HCV RNA by real time RT-PCR; format: cell-based; details: Hepatitis C virus, 96 h
Huh7.5 cells = test: Cytotoxicity in Huh7.5 cells (MTT); format: cell-based, human; details: 96 h
Procedure: The Huh7.5 cells (1 × 10^4 cells/well) were plated in 96-well plates. Six hours later the culture media was replaced with fresh medium containing the test compounds at various concentrations. Cytotoxicity was evaluated with the 3-(4,5-dimethylthiazol-2-yl)-2,5-diphenyltetrazolium bromide (MTT) assay after 96 h.
Huh7.5 cells were seeded at a density of 3 × 10^4 cells/cm^2. After 24 h of incubation, the cells were infected with an HCV viral stock (approximately 45 IU per cell) and simultaneously treated with Telaprevir, the test compounds, or the solvent control. The culture medium was removed 96 h after inoculation, and the total intracellular RNA and total intracellular proteins were extracted with a Qiagen Kit according to the manufacturer’s instructions. Intracellular HCV RNA was quantified using a one-step real time RT-PCR kit (Invitrogen). Cytotoxicity was tested by the MTT assay, and IC50 values were calculated by the Reed and Muench methods.

HBV = test: Anti-HBV assay in HepG2.2.15 cells, viral DNA by real time PCR; format: cell-based, Hepatitis B virus; details: for pIC50: Hepatitis B virus, HepG2.2.15, 144 h, intracellular viral DNA, 3 + 3 days
Procedure: The synthesized target compounds were assayed for their broad spectrum antiviral activity towards influenza A, HBV, HCV and Cox B3 virus in vitro. […] The inhibitory activities towards HBV and HCV were tested by real time PCR, and lamivudine (3TC) and teleprevir were used as positive controls, respectively.
The anti-HBV activities of test compounds and a positive control drug were tested in HepG2.2.15 cells. The HepG2.2.15 cells were cultured in 96-well plates and treated with the test compounds at 37 °C for 3 days. The medium was removed, and fresh medium containing the test compounds was added for an additional 3 days. The cells were harvested and intracellular DNA was extracted. The inhibition of viral DNA replication in treated cells versus untreated cells was determined by real time PCR.

HepG2.2.15 cells = test: Cytotoxicity in HepG2.2.15 cells (CPE); format: cell-based, human; details: 3 + 3 days
Procedure: Cells were cultured for 3 days at 37 °C in a 5% CO2 atmosphere in an incubator, and the medium was replaced with fresh medium containing the test compounds for an additional 3 days. The cells were subsequently monitored by CPE and the TC50 value was calculated using Reed and Muench analysis.

Vero cells = test: Cytotoxicity in Vero cells (CPE); details: 48 h, Reed & Muench
Procedure: as §1

[2] = system: influenza A, HCV, Cox B3 virus and HBV; test: Broad-spectrum antiviral panel (summary over all four antiviral assays); format: cell-based; details: range/approximate value over influenza A, read-out: IC50 over the entire virus panel

| Structure (SMILES) | pIC50 [1] | TC50 (50% cytotoxic concentration), Influenza A/hanfang/359/95 (MDCK cells) | pIC50 (Cox B3) | pIC50 (HCV) | TC50 (50% cytotoxic concentration), HCV (Huh7.5 cells) | pIC50 (HBV) | TC50 (50% cytotoxic concentration), HBV (HepG2.2.15 cells) | melting point | TC50 (50% cytotoxic concentration), Cox B3 (Vero cells) | anti-HBV activity (in words) (HBV) | pIC50 [2] |
| --- | --- | --- | --- | --- | --- | --- | --- | --- | --- | --- | --- |
| COc1cc(CNc2ccc3ncsc3c2)cc(Br)c1O [3a, 4-(Benzothiazol-6-ylaminomethyl)-2-bromo-6-methoxyphenol] | < 4.99 | 21.08 µM | 4.99 | 4.31 | 108.82 µM | < 4.78 | 28.87 µM | 193 to 195 °C | 21.08 µM |  |  |
| COc1cccc(CNc2ccc3ncsc3c2)c1O [3b, 2-(Benzothiazol-6-ylaminomethyl)-6-methoxyphenol] | 5.00 | 55.95 µM | 5.25 | 4.42 | 126.59 µM | < 4.48 | 57.74 µM | 206 to 208 °C | 67.23 µM |  |  |
| C(=C\c1ccccc1)/CNc1ccc2ncsc2c1 [3e, (E)-benzothiazol-6-yl-(3-phenyl-allyl)-amine] | 5.07 | 24.10 µM | 5.94 | 5.01 | 43.58 µM | < 5.25 | 9.62 µM | 99 to 101 °C | 20.05 µM | did not exhibit any activity |  |
| COc1ccccc1/C=C/CNc1ccc2ncsc2c1 [3f, (E)-benzothiazol-6-yl-[3-(2-methoxy-phenyl)-allyl]-amine] | 5.38 | 21.66 µM | 5.49 | 5.30 | 54.99 µM | 5.30 | 28.87 µM | 107 to 109 °C | 12.48 µM |  | 5.30 to 5.49 and ~5.30 |
| Cc1ccc(CNc2ccc3ncsc3c2)o1 [3g, Benzothiazol-6-yl-(5-methylfuran-2-ylmethyl)-amine] | 4.58 | 94.60 µM | 5.30 | 4.46 | 138.38 µM | 6.15 | 21.48 µM | 52 to 54 °C | 65.57 µM |  | 4.46 to 6.15 |
| Clc1ccc(CNc2ccc3ncsc3c2)s1 [3i, Benzothiazol-6-yl-(5-chlorothiophen-2-ylmethyl)-amine] | 5.47 | 27.42 µM | 5.60 | 5.01 | 38.24 µM | < 5.25 | 9.62 µM | 104 to 106 °C | 13.18 µM |  |  |
| c1ncc(CNc2ccc3ncsc3c2)cn1 [3j, Benzothiazol-6-yl-pyrimidin-5-ylmethyl-amine] | 3.67 | 826.44 µM | 4.28 | < 4.18 | >200 µM | < 4.78 | 28.87 µM | 127 to 129 °C | 826.44 µM |  |  |
| Cc1ccc(CNc2ccc3nc[nH]c3c2)o1 [4b, (3H-Benzoimidazol-5-yl)-(5-methyl-furan-2-ylmethyl)-amine] | 4.67 | 440.02 µM | 4.31 | 4.61 | >200 µM | < 4.30 | >50 µM | 75 to 77 °C | 254.07 µM | complete loss of antiviral activity |  |
